Test system: Caco-2 cells
Test: Evaluation of intestinal barrier function improvement: TEER reduction suppression in Caco-2 monolayer with inflammatory cytokines (TNFα, IL-1β, IFNγ)
Format: cell-based, human
Conditions: for Synergistic effect (M.V./T/V/) / TEER reduction suppression ratio (%) +gallic acid (actual measurement value) (M.V.) / Synergistic effect (M.V./T.V.): combined use of phenolic compound and gallic acid; for TEER reduction suppression ratio (%) +gallic acid (theoretical value) (T.V.): sum of ratios of phenolic compound alone and gallic acid alone, 10 μM each; for Relative value of TEER reduction suppression ratio: sample alone 1 μM; for Synergistic effect (relative value of actual measurement value / relative value of theoretical value): combined use of the phenolic compound with gallic acid, 1 μM each (Table 1)
Source text: The intestinal barrier function improvement effect is indicated by, for example, increase in the electrical resistance value (transepithelial electric resistance: TEER) of the intestinal epithelial cells or suppression of the decrease in the TEER. A substance increasing the TEER or suppressing the decrease thereof has the action of normalizing or strengthening the tight junction in the intestinal epithelial cells. The intestinal barrier function improvement effect is also indicated by decrease in the amount of a substance permeating from the intestinal side of the intestinal epithelial cells to the inside of the body. The person skilled in the art can select a specific method of evaluating the intestinal barrier function improvement effect depending on the purpose. For exarple, as shown in Examples to be described later, a method for measuring TEER using an intestinal permeation model using human intestinal epithelial cells (Caco-2 cells) can be used. Specifically, inflammatory cytokine (TNFα, IL-1β, IFNγ and the like) is added into Caco-2 monolayer cultured cells to produce a state where the intestinal barrier function can be collapsed in human. If the addition of a test substance suppresses the decrease in the TEER as compared with the case where the substance is not added, the test substance can be evaluated to have the intestinal barrier function improvement effect.
Caco-2 cells were cultured for three weeks at 37° C. in Transwell (manufactured by Millicell Corporation) using DMEM (Dulbecco's modified Eagle's medium). A medium was removed from a plate of cultured Caco-2 cells, and the well was washed 3 times with serum-free DMEM. The well was filled with the medium. Then, the transepithelial electrical resistance (TEER) of Caco-2 monolayer cells was measured by Millicell-ERS (manufactured by Millipore Corporation). Cells (TEER≥1000 Ω·cm^2) determined that a sufficient tight junction was formed were selected, and used for the next screening. Then, to test solutions (media) on both apical and basolateral membrane sides, a sample, TNFα (40 ng/mL), IL-1β (20 ng/mL), and IFNγ (10 ng/mL) were added, followed by cultivating for 48 hours. The sample was dissolved in dimethyl sulfoxide (DMSO), and the solution was then added to the test solutions. In this case, a well to which inflammatory cytokine (TNFα, IL-1β, and IFNγ) and the sample were not added was provided as normal. A well to which inflammatory cytokine was added and the sample was not added was provided as control. After the cultivation, TEER was measured again, to evaluate whether the sample suppressed the reduction (decrease) of TEER due to the inflammatory cytokine.
The TEER reduction suppression ratio (%) due to the sample was determined according to the following formula from the TEER values of the well to which the sample was added, normal, and control.
(Calculating formula of TEER reduction suppression ratio) TEER reduction suppression ratio (%)=100×((TEER of well to which sample is added)−(TEER of control))/((TEER of normal)−(TEER of control))
In this evaluation system, as the TEER reduction suppression ratio (%) is higher, an intestinal barrier function improvement effect is higher.

[1] = Evaluation 2, epicatechin (EC) set to 1.0
[2] = Evaluation 4, epigallocatechin (EGC) set to 1.0
[3] = Evaluation 3, gallocatechin (GC) set to 1.0

| Structure (SMILES) | Synergistic effect (M.V./T/V/) (each 10 μM) | TEER reduction suppression ratio (%) +gallic acid (actual measurement value) (M.V.) (each 10 μM) | Synergistic effect (M.V./T.V.) (each 1 μM) | TEER reduction suppression ratio (%) +gallic acid (actual measurement value) (M.V.) (each 1 μM) | other results |
| --- | --- | --- | --- | --- | --- |
| OC[C@H]1O[C@@H](Oc2cc(O)cc(/C=C/c3ccc(O)cc3)c2)[C@H](O)[C@@H](O)[C@@H]1O (relative stereo) [trans-Piceid, trans-piceid] | 1.5 | 65% | – | – | TEER reduction suppression ratio (%) +gallic acid (theoretical value) (T.V.): 45% |
| O=C(OC[C@H]1O[C@@H](OC(=O)c2cc(O)c(O)c(O)c2)[C@H](OC(=O)c2cc(O)c(O)c(O)c2)[C@@H](OC(=O)c2cc(O)c(O)c(O)c2)[C@@H]1OC(=O)c1cc(O)c(O)c(O)c1)c1cc(O)c(O)c(O)c1 [1,2,3,4,6-penta-O-galloyl-β-D-glucose] | – | – | 1.4 | 91% | – |
| O=C(OC[C@H]1O[C@@H](OC(=O)c2cc(O)c(O)c(O)c2)[C@H](OC(=O)c2cc(O)c(O)c(O)c2)[C@@H](OC(=O)c2cc(O)c(O)c(O)c2)[C@@H]1O)c1cc(O)c(O)c(O)c1 [1,2,3,6-tetra-O-galloyl-β-D-glucose] | – | – | 1.5 | 81% | – |
| O=C(OC[C@H]1O[C@@H](OC(=O)c2cc(O)c(O)c(O)c2)[C@H](OC(=O)c2cc(O)c(O)c(O)c2)[C@@H](O)[C@@H]1OC(=O)c1cc(O)c(O)c(O)c1)c1cc(O)c(O)c(O)c1 [1,2,4,6-tetra-O-galloyl-β-D-glucose] | – | – | 1.4 | 56% | – |
| O=C(OC[C@H]1O[C@@H](OC(=O)c2cc(O)c(O)c(O)c2)[C@H](O)[C@@H](O)[C@@H]1OC(=O)c1cc(O)c(O)c(O)c1)c1cc(O)c(O)c(O)c1 [1,4,6-tri-O-galloyl-β-D-glucose] | – | – | 1.7 | 40% | – |
| O=C(OC[C@H]1O[C@@H](O)[C@H](OC(=O)c2cc(O)c(O)c(O)c2)[C@@H](OC(=O)c2cc(O)c(O)c(O)c2)[C@@H]1OC(=O)c1cc(O)c(O)c(O)c1)c1cc(O)c(O)c(O)c1 [2,3,4,6-tetra-O-galloyl-β-D-glucose] | – | – | 2.0 | 90% | – |
| O=C(O)/C=C/c1ccccc1O [2-Coumaric acid, 2-coumaric acid] | 3.0 | 46% | – | – | – |
| O=C(O)/C=C/c1cccc(O)c1 [3-Coumaric acid, 3-coumaric acid] | 1.2 | 48% | – | – | – |
| O=c1cc(-c2ccc(O)cc2)oc2cc(O)cc(O)c12 [Apigenin, apigenin] | 4.1 | 51% | – | – | – |
| O=C(O[C@@H]1COC(=O)c2cc(O)c(O)c(O)c2-c2c(cc(O)c(O)c2O)C(=O)O[C@H]1[C@@H]1OC(=O)c2cc(O)c(O)c(O)c2-c2c(O)c(O)c(O)c3c2C(=O)O[C@H]1[C@@H]3O)c1cc(O)c(O)c(O)c1 [Casuarinin, casuarinin] | – | – | 1.4 | 81% | – |
| O=C(O[C@@H]1O[C@@H]2COC(=O)c3cc(O)c(O)c(O)c3-c3c(cc(O)c(O)c3O)C(=O)O[C@H]([C@H]1O)[C@@H]2O)c1cc(O)c(O)c(O)c1 [Corilagin, corilagin] | – | – | 3.4 | 76% | – |
| O=c1c(-c2ccc(O)cc2)coc2cc(O)ccc12 [Daidzein, daidzein] | 1.8 | 50% | – | – | – |
| Oc1cc(O)c2c(c1)O[C@H](c1ccc(O)c(O)c1)[C@H](O)C2 [Epicatechin (EC), epicatechin] | – | – | – | – | Relative value of TEER reduction suppression ratio [1]: 1.0; Synergistic effect (relative value of actual measurement value / relative value of theoretical value): 1.7 |
| O=C(O[C@@H]1Cc2c(O)cc(O)cc2O[C@@H]1c1ccc(O)c(O)c1)c1cc(O)c(O)c(O)c1 [Epicatechin gallate, epicatechin gallate] | 2.3 | 110% | – | – | – |
| Oc1cc(O)c2c(c1)O[C@H](c1cc(O)c(O)c(O)c1)[C@H](O)C2 [Epigallocatechin (EGC), epigallocatechin] | – | – | – | – | Relative value of TEER reduction suppression ratio [2]: 1.0; Synergistic effect (relative value of actual measurement value / relative value of theoretical value): 1.5 |
| O=C(O[C@@H]1Cc2c(O)cc(O)cc2O[C@@H]1c1cc(O)c(O)c(O)c1)c1cc(O)c(O)c(O)c1 [Epigallocatechin gallate, epigallocatechin gallate] | 1.5 | 114% | – | – | TEER reduction suppression ratio (%) +gallic acid (theoretical value) (T.V.): 76% |
| O=C(O)c1cc(O)c(O)c(O)c1 [Gallic acid (GA), 3,4,5-trihydroxybenzoic acid] | – | – | – | – | TEER reduction suppression ratio of gallic acid relative to quercetin at the same concentration (100 μM each, gallic acid vs quercetin): about 1.15 times; Relative value of TEER reduction suppression ratio (Evaluation 1, catechin (CA) set to 1.0): 0.4; Relative value of TEER reduction suppression ratio [1]: 0.5; Relative value of TEER reduction suppression ratio [3]: 0.3; Relative value of TEER reduction suppression ratio [2]: 0.2; Suppression of the reduction of TEER due to inflammatory cytokine (gallic acid alone, 1 μM and 10 μM): suppressed the reduction of TEER; TEER reduction suppression ratio (sample alone 100 μM, TNFα 40 ng/mL, IL-1β 20 ng/mL, IFNγ 10 ng/mL, 48 hours): 86.5% |
| Oc1cc(O)c2c(c1)O[C@H](c1cc(O)c(O)c(O)c1)[C@@H](O)C2 [Galloatechin (GC), gallocatechin] | – | – | – | – | Relative value of TEER reduction suppression ratio [3]: 1.0; Synergistic effect (relative value of actual measurement value / relative value of theoretical value): 2.5 |
| O=c1c(-c2ccc(O)cc2)coc2cc(O)cc(O)c12 [Genistein, genistein] | 1.6 | 58% | – | – | – |
| O=C1O[C@@H]2C3COC(=O)c4cc(O)c(O)c(O)c4-c4c(cc(O)c(O)c4O)C(=O)O[C@H]2C(OC(=O)c2cc(O)c(O)c4c2C2C1=CC(=O)C(O)(O)[C@@]2(O)O4)[C@H](OC(=O)c1cc(O)c(O)c(O)c1)O3 (stereo partly shown) [Geraniin, geraniin] | – | – | 2.4 | 119% | – |
| O=c1c(O)c(-c2ccc(O)cc2)oc2cc(O)cc(O)c12 [Kaempferol, kaempferol] | 2.5 | 43% | – | – | – |
| O=c1cc(-c2ccc(O)c(O)c2)oc2cc(O)cc(O)c12 [Luteolin, luteolin] | 1.6 | 58% | – | – | – |
| O=c1c(O)c(-c2cc(O)c(O)c(O)c2)oc2cc(O)cc(O)c12 [Myricetin, myricetin] | 1.2 | 75% | – | – | – |
| O=C(/C=C/c1ccc(O)cc1)c1c(O)cc(O)cc1O [Naringenin chalcone, 4,2′,4′,6′-tetra-hydroxy chalcone] | 1.7 | 51% | – | – | – |
| O=C1C[C@@H](c2ccc(O)cc2)Oc2cc(O)cc(O)c21 [Naringenin, naringenin] | 2.0 | 61% | – | – | – |
| O=C1OCC2O[C@@H](O)C3OC(=O)c4cc(O)c(O)c(O)c4-c4c(cc(O)c(O)c4O)C(=O)OC3[C@@H]2OC(=O)c2cc(O)c(O)c(O)c2-c2c1cc(O)c(O)c2O (stereo partly shown) [Pedunculagin, pedunculagin] | – | – | 1.7 | 90% | – |
| COc1cc(-c2[o+]c3cc(O)cc(O)c3cc2O)cc(O)c1O [Petunidin chloride, petunidin chloride] | 1.9 | 70% | – | – | – |

Reference: patent publication US20200315998A1, “COMPOSITION FOR IMPROVING INTESTINAL BARRIER FUNCTION” (SUNTORY HOLDINGS LIMITED, priority 2017, published 2020)
